Assay results: ChEMBL document CHEMBL4261597, “1,2,3-Triazole fused with pyridine/pyrimidine as new template for antimicrobial agents: Regioselective synthesis and identification of potent N-heteroarenes” (2018)
Activity calls are given as the source filed them. The rule behind the calls is not given here.

What was measured:
Fusarium oxysporum [1] = assay: Antifungal activity against Fusarium oxysporum lycopersici after 48 hrs; format: functional, Fusarium oxysporum f. sp. lycopersici
Fusarium [2] = assay: Antifungal activity against Fusarium recini assessed as zone of inhibition at 10 ug after 48 hrs; format: functional; conditions: read-out: DIZ
Escherichia coli [3] = assay: Antibacterial activity against Escherichia coli at 25 to 100 ug after 24 hrs; format: functional, organism-based
Escherichia coli [4] = assay: Antibacterial activity against Escherichia coli assessed as zone of inhibition at 10 ug after 24 hrs; format: functional; conditions: for zone of inhibition at 10 µg/disc: read-out: DIZ
Bacillus subtilis [5] = assay: Antibacterial activity against Bacillus subtilis assessed as zone of inhibition at 10 ug after 24 hrs; format: functional; conditions: for zone of inhibition at 10 µg/disc: read-out: DIZ
Fusarium [6] = assay: Antifungal activity against Fusarium recini after 48 hrs; format: functional
Bacillus subtilis [7] = assay: Antibacterial activity against Bacillus subtilis at 25 to 100 ug after 24 hrs; format: functional, organism-based
Fusarium oxysporum [8] = assay: Antifungal activity against Fusarium oxysporum lycopersici assessed as zone of inhibition at 10 ug after 48 hrs; format: functional, Fusarium oxysporum f. sp. lycopersici; conditions: read-out: DIZ
Bacillus subtilis [9] = assay: Antibacterial activity against Bacillus subtilis after 24 hrs; format: functional
Escherichia coli [10] = assay: Antibacterial activity against Escherichia coli after 24 hrs; format: functional

| SMILES | MIC (Fusarium oxysporum [1]) | MIC (Fusarium [6]) | MIC (Bacillus subtilis [9]) | MIC (Escherichia coli [10]) | zone of inhibition at 10 µg/disc (Fusarium [2]) | Activity (Escherichia coli [3]) | diameter of the inhibition zone (DIZ) (Escherichia coli [4]) | diameter of the inhibition zone (DIZ) (Bacillus subtilis [5]) | Activity (Bacillus subtilis [7]) | zone of inhibition at 10 µg/disc (Fusarium oxysporum [8]) | zone of inhibition at 10 µg/disc (Escherichia coli [4]) | zone of inhibition at 10 µg/disc (Bacillus subtilis [5]) |
| --- | --- | --- | --- | --- | --- | --- | --- | --- | --- | --- | --- | --- |
| COc1ccc(-n2nnc3cccnc32)cc1 | 100 µg | 50 µg |  |  | 3 mm |  | inactive | inactive |  | 2 mm |  |  |
| COc1ccc(-n2nnc3cnc(Cl)cc32)cc1 | 50 µg | 25 µg |  |  | 7 mm |  | inactive | inactive |  | 6 mm |  |  |
| Fc1ccc(-n2nnc3cnc(Cl)cc32)cc1 | 50 µg | 50 µg |  |  | 7 mm |  | inactive | inactive |  | 3 mm |  |  |
| CN[C@@H]1[C@H](O[C@H]2[C@H](O[C@H]3[C@H](O)[C@@H](O)[C@H](N=C(N)N)[C@@H](O)[C@@H]3N=C(N)N)O[C@@H](C)[C@]2(O)C=O)O[C@@H](CO)[C@H](O)[C@H]1O [STREPTOMYCIN] |  |  | 25 µg | 25 µg |  |  |  |  |  |  | 13 mm | 16 mm |
| Clc1cc2c(cn1)nnn2C1CCOCC1 | 50 µg | 25 µg |  |  | 6 mm |  | inactive | inactive |  | 6 mm |  |  |
| c1cnc2c(c1)nnn2C1CCOCC1 | 75 µg | 50 µg |  |  | 5 mm |  | inactive | inactive |  | 3 mm |  |  |

More lines, main results first:

| MIC (Fusarium oxysporum [1]) | MIC (Fusarium [6]) | MIC (Bacillus subtilis [9]) | MIC (Escherichia coli [10]) | SMILES | zone of inhibition at 10 µg/disc (Fusarium [2]) | Activity (Escherichia coli [3]) | diameter of the inhibition zone (DIZ) (Escherichia coli [4]) | diameter of the inhibition zone (DIZ) (Bacillus subtilis [5]) | Activity (Bacillus subtilis [7]) | zone of inhibition at 10 µg/disc (Fusarium oxysporum [8]) | zone of inhibition at 10 µg/disc (Escherichia coli [4]) | zone of inhibition at 10 µg/disc (Bacillus subtilis [5]) |
| --- | --- | --- | --- | --- | --- | --- | --- | --- | --- | --- | --- | --- |
| 100 µg | 50 µg |  |  | Oc1ncnc2c1nnn2Cc1ccccc1 | 6 mm | inactive | inactive | inactive | inactive | 5 mm |  |  |
| 75 µg | 50 µg | 25 µg | 100 µg | Fc1ccc(-n2nnc3cccnc32)cc1 | 5 mm |  |  |  |  | 6 mm | 11 mm | 12 mm |
| 75 µg | 100 µg |  |  | Cc1ccc(-n2nnc3cccnc32)c(C)c1 | 6 mm |  | inactive | inactive |  | 6 mm |  |  |
| 100 µg | 25 µg | 25 µg | 25 µg | Clc1cc2c(cn1)nnn2Cc1ccccc1 | 7 mm |  |  |  |  | 1 mm | 10 mm | 13 mm |
